Experimental findings from patent US20060240057A1, “Termiticide compositions” (priority 2003, published 2006) are described below.

Where two headings read alike, the source gives them in different places.

The test system of series [1] is termites (Reticulitermes flavipes). In words: Termite mortality by direct application (track sprayer) of combinations of bifenthrin and acetamiprid to termites. It counts as in vivo. Conditions: for mortality at 10 ppm / mortality at 50 ppm / mortality at 100 ppm / mortality at 200 ppm: Reticulitermes flavipes, read-out: Percent Mortality. The procedure: (§1) Test compositions made up of Talstar® Termiticide/Insecticide and a 70% wettable powder of acetamiprid in distilled water were prepared that provided appropriate rates of application of combinations of bifenthrin and acetamiprid, as well as bifenthrin and acetamiprid alone.
Solutions of the test materials were applied directly to 50 termites (Reticulitermes flavipes) per petri plate using a track sprayer calibrated to deliver 1.2 ml per petri plate at 40 psi. After application, petri dishes with treated termites were inverted onto fresh petri plates containing dry filter paper. After all applications were completed, termites were then transferred to petri dishes containing moist soil with cardboard as a food source. Expired termites were removed at each reading. At 0 hours, 1 hour, 2 hours, 1 day, and 2 days after treatment (HAT or DAT, respectively), termite mortality was measured. The following calculation determined whether the combination treatments provided enhanced activity over what would be expected based on the activity of each active ingredient separately: [formula]
A and B refer to the two separate treatments of two different active ingredients at specific rates.

Series [2] deals with termite (Reticulitermes flavipes) workers. In words: Termite mortality by soil applications of combinations of bifenthrin and acetamiprid (soil column in glass tube). It counts as in vivo. Conditions: soil application, read-out: Percent Mortality; for mortality at 60 ppm: Bifenthrin @ 60 ppm; for mortality at 500 ppm: Acetamiprid @ 500 ppm. The procedure:
as §1
Glass tubing, 13 mm in diameter, was then cut into 20 cm sections in sufficient quantity to conduct the test. Each […] section of tubing was marked at 5 cm, 8 cm, and 18 cm distances from one end of the tube designated as the bottom. Each section of tubing was packed with a sandy soil (3% wt/wt moisture content) by first placing a section of a 1 cm diameter wooden dowel into the bottom of the glass tube up to the 8 cm marking, then introducing approximately 2 cm of soil into the other end of the tube designated as the top. The soil was then gently packed into the tube from the top using a second section of the 1 cm diameter wooden dowel. The process was repeated using 2 cm aliquots of soil until the soil level was adjacent to the 18 cm marking, thereby providing a column of soil 10 cm in height. An agar plug, which was formed in a section of the 13 mm diameter glass tubing of the type used to conduct these tests, was cut into 3 cm sections. A 3 cm section of agar was then gently pushed into the bottom of each tube containing the soil until the agar plug firmly touched the soil at the 8 cm marking, thereby creating a 5 cm void in the bottom of each section of tubing. Following placement of the agar plugs in each section of tubing; two sections of applicator sticks cut in 6 cm lengths were inserted into the bottom end of each tube thereby forcing about 1 cm of each stick into the agar plug to hold the agar plug in place. Plastic caps, with an inside diameter of 13 mm and holes drilled in their centers, were placed on the bottom ends of each of the sections of tubing. A sharpened applicator stick was then inserted into the hole in each plastic cap through the agar plug to the intersection of the agar plug and the soil. The applicator stick was then gently removed in a rotating manner to provide a means for a free flow of liquid through the soil. Each section of tubing was then stood upright, and 0.5 niL aliquots of each suspension of bifenthrin, acetamiprid or combinations thereof, as prepared above, were pipetted onto the top of the soil. Upon application of the test suspensions the top of each section of tubing was covered with a small piece of aluminum foil. The tubes were then allowed to stand for about 20 hours to allow movement of the termiticide(s) downward into the soil. After this time a plastic cap of 13 mm inside diameter was placed on the top of each section of tubing. The plastic caps with the holes drilled in their centers were removed from the bottom of each section of tubing, and a piece of 0.5 cm×4 cm filter paper was then placed between the two sections of applicator sticks. Fifty termite (Reticulitermes flavipes) workers were then inserted into the 5 cm void in the bottom of each section of tubing. New plastic caps without holes drilled in their centers were placed on the bottom of each section of tubing. The sections of tubing were then stored in an upright position, with the termites located below the soil. At 1, 3, 6, 8, 10, 13, 15, 17, 20, and 22 days after treatment (DAT), termite mortality was measured.

Turning to `Cc1c(COC(=O)[C@@H]2[C@H](/C=C(\Cl)C(F)(F)F)C2(C)C)cccc1-c1ccccc1` (racemic) [Bifenthrin, bifenthrin], the “Percent Mortality” value in series [1] (Bifenthrin @ 10 ppm, 1 HAT) came out at 0%; in series [1] (Bifenthrin @ 10 ppm, 2 HAT), 0%; in series [1] (Bifenthrin @ 50 ppm, 1 HAT), 0%; in series [1] (Bifenthrin @ 50 ppm, 2 HAT), 0%. In addition, the mortality at 10 ppm in series [1] (24 h, Bifenthrin @ 10 ppm, 1 DAT) is 11%; in series [1] (48 h, Bifenthrin @ 10 ppm, 2 DAT), 26%; in series [1] (Bifenthrin @ 10 ppm, 0 HAT), 0%. For the same compound, the mortality at 50 ppm in series [1] (24 h, Bifenthrin @ 50 ppm, 1 DAT) was determined as 63%; in series [1] (48 h, Bifenthrin @ 50 ppm, 2 DAT), 96%; in series [1] (Bifenthrin @ 50 ppm, 0 HAT), 0%. In addition, the mortality at 60 ppm came out at 6% in series [2] (24 h, 1 DAT); 6% in series [2] (72 h, 3 DAT); 11% in series [2] (144 h, 6 DAT); 13% in series [2] (192 h, 8 DAT); 13% in series [2] (240 h, 10 DAT); 13% in series [2] (312 h, 13 DAT). Also, the mortality at 60 ppm in series [2] (360 h, 15 DAT) stood at 16%; in series [2] (408 h, 17 DAT), 16%; in series [2] (480 h, 20 DAT), 16%; in series [2] (528 h, 22 DAT) it was 16%.

As to `C/C(=N\C#N)N(C)Cc1ccc(Cl)nc1` [Acetamiprid, acetamiprid], the “Percent Mortality” value is on record as 0% in series [1] (Acetamiprid @ 100 ppm, 1 HAT); 0% in series [1] (Acetamiprid @ 100 ppm, 2 HAT); 0% in series [1] (Acetamiprid @ 200 ppm, 1 HAT); 0% in series [1] (Acetamiprid @ 200 ppm, 2 HAT). In addition, the mortality at 100 ppm amounted to 16% in series [1] (24 h, Acetamiprid @ 100 ppm, 1 DAT); 78% in series [1] (48 h, Acetamiprid @ 100 ppm, 2 DAT); 0% in series [1] (Acetamiprid @ 100 ppm, 0 HAT). Further, the mortality at 200 ppm was determined as 35% in series [1] (24 h, Acetamiprid @ 200 ppm, 1 DAT); 88% in series [1] (48 h, Acetamiprid @ 200 ppm, 2 DAT); 0% in series [1] (Acetamiprid @ 200 ppm, 0 HAT). Further, the mortality at 500 ppm turned out to be 5% in series [2] (24 h, 1 DAT); 84% in series [2] (72 h, 3 DAT); 100% in series [2] (144 h, 6 DAT); 100% in series [2] (192 h, 8 DAT); 100% in series [2] (240 h, 10 DAT); 100% in series [2] (312 h, 13 DAT). Also, the mortality at 500 ppm in series [2] (360 h, 15 DAT) came to 100%; in series [2] (408 h, 17 DAT), 100%; in series [2] (480 h, 20 DAT) it was 100%; in series [2] (528 h, 22 DAT) it was 100%.
